In PubChem BioAssay AID2060490 (Molecular Pharmacology Branch, DTP, NCI, 2025):
pIC50: −log10 of the molar value. Several values for one entry are separate records, joined by “and”; a condition that tells them apart may be missing. Identical values can stand only once.

Test system: 885512-296-R-J2-PDC complex spheroid viability
Test: Anticancer human tumor 885512-296-R-J2-PDC patient-derived breast carcinoma cell line growth inhibition [GQUAD]
Conditions: for viability, T/C: stronger effect = lower value
Source text: DNA G-quadruplex Stabilizer Agents in Combinations in Complex Spheroids
A high-throughput screen of multi-cell type tumor spheroids was designed to identify active combinations of DNA G-quadruplex stabilizer agents and targeted small molecules. Complex spheroids include a stromal component modeled by human endothelial cells (HUVEC) and fibroblasts modeled by human mesenchymal stem cells (MSCs). The concentration ranges selected for each drug and investigational agent were based upon clinically achievable concentrations if the clinical Cmax of the agent was known.
Compounds. The drugs and investigational agents: pidnarulex (CX-5461; NSC782164), APTO-253 (NSC789042), BRACO-19 (NSC847499), peposertib (NSC802822), ceralasertib (NSC780249), elimusertib (NSC800525), camonsertib (NSC841442), AZD-1390 (NSC803789), olaparib (NSC753686), talazoparib (NSC767125), ART-558 (NSC835418), sotorasib (NSC818433), MRTX-1133 (NSC836407), SN-38 (NSC673596), topotecan (NSC609699), etoposide (NSC141540), doxorubicin (NSC123127), gemcitabine (NSC613327), 5-fluorouracil (NSC19893), paclitaxel (NSC125973), vemurafenib (NSC761431), panobinostat (NSC761190), R-306465 (JNJ-16241199; NSC773264), adavosertib (NSC754352), TP-3654 (NSC805149), carboplatin (NSC241240), KSQ-4279 (NSC840948), and staurosporine (NSC755774) were obtained from the National Cancer Institute (NCI) Developmental Therapeutics Program Chemical Repository (34). The FDA-approved anticancer drug set is available from the NCI Developmental Therapeutics Program. […] The stock solutions were prepared in dimethyl sulfoxide (DMSO, Sigma-Aldrich, St. Louis, MO, cat. D2650) at 800-fold the tested concentration and stored at -70 degrees C prior to their use. All drugs and investigational agents were tested over a range starting from a high concentration at or near the clinical Cmax and decreasing in half-log increments. If the clinical Cmax for an agent had not been determined, the highest concentration tested was 10 microM.
2.3 Cell Culture. All cells were maintained in an incubator at 37 degrees C and 5% CO2 with 95% humidity. The PDC lines were cultured according to standard operating procedures established by the NCI PDMR. All PDCs were thawed and cultured in Matrigel-coated flasks prepared with a working solution of 1X Ham's F-12 nutrient mix, without supplementation (Invitrogen, cat. 11765054), 100 U/mL penicillin-streptomycin (Invitrogen, cat. 15140122), and 2.5% Matrigel (Corning Inc., cat. 354248) for the first three passages. The 857933-349-R-J2-PDC line was cultured in 6C/Colon 1B media, which includes advanced DMEM/F-12 (Thermo Fisher Scientific, cat. 12634028), 10 mM HEPES (Thermo Fisher Scientific, cat. 15630080), 1X GlutaMAX supplement (Thermo Fisher Scientific, cat. 35050061), 0.1 mg/mL primocin (InvivoGen, cat. ant-pm-2), 10% defined fetal bovine serum, heat inactivated (HyClone Laboratories Inc., cat. SH30070.03HI), 50% L-WRN conditioned media (ATCC, cat. CRL-3276), 1.25 mM N-Acetyl-L-cysteine (Sigma-Aldrich, cat. A9165), 10 mM nicotinamide (Sigma-Aldrich, cat. N0636), 1X B-27 supplement (Thermo Fisher Scientific, cat. 17504044), 1X N-2 supplement (Thermo Fisher Scientific, cat. 17502048), 10 microM Y-27632 dihydrochloride (Tocris Bioscience, cat. 1254), and 50 ng/mL human EGF recombinant protein (Thermo Fisher Scientific, cat. PHG0311). The 485176-168-R4-J1-PDC line was cultured in Panc media, which includes all 6C/Colon 1B media components plus 100 ng/mL human FGF-10 (Thermo Fisher Scientific, cat. 100-26), 500 nM SB-431542 (Selleckchem, cat. S1067), and gastrin (Tocris, cat. 3006).
[…]
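Also: spheroids exposed to the compounds for one week.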
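For viability, T/C in this document: percent of tumor spheroid viability relative to DMSO vehicle control wells.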

CC1COCCN1c1cc(C2(O)CC3CCC(C2)O3)c2cnn(-c3ccn[nH]3)c2n1 (stereo unspecified)
viability, T/C (compound 0.0316 µM): 35.6% and 35.7% and 28.2%
viability, T/C (compound 0.1 µM): 5.4% and 6.31% and 4.72%
viability, T/C (compound 0.316 µM): 3.47% and 3.66% and 2.97%
viability, T/C (compound 1 µM): 4.37% and 4.46% and 4.22%
viability, T/C (compound 3.16 µM): 5.77% and 6.96% and 7.53%
viability, T/C (compound 10 µM): 7.08% and 8.11% and 7.48%
pIC50 (curve of compound): > 7.50

O=C(c1cc(Cc2n[nH]c(=O)c3ccccc23)ccc1F)N1CCN(C(=O)C2CC2)CC1 + Cc1[nH]c2ccc(F)cc2c1-c1nc2c3cccnc3c3ncccc3c2[nH]1
pIC50 (curve of first compound, second compound 0.0316 µM): 5.08
pIC50 (curve of first compound, second compound 0.1 µM): 5.02
pIC50 (curve of first compound, second compound 0.316 µM): 5.07
pIC50 (curve of first compound, second compound 1 µM): 5.29
pIC50 (curve of first compound, second compound 3.16 µM): > 7.50
pIC50 (curve of first compound, second compound 10 µM): > 7.50
viability, T/C (second compound 0.0316 µM, first compound 0.0316 µM): 105%
viability, T/C (second compound 0.0316 µM, first compound 0.1 µM): 96.3%
viability, T/C (second compound 0.0316 µM, first compound 0.316 µM): 124%
viability, T/C (second compound 0.0316 µM, first compound 1 µM): 139%
viability, T/C (second compound 0.0316 µM, first compound 3.16 µM): 134%
viability, T/C (second compound 0.0316 µM, first compound 10 µM): 36%
viability, T/C (second compound 0.1 µM, first compound 0.0316 µM): 98%
viability, T/C (second compound 0.1 µM, first compound 0.1 µM): 103%
viability, T/C (second compound 0.1 µM, first compound 0.316 µM): 119%
viability, T/C (second compound 0.1 µM, first compound 1 µM): 137%
viability, T/C (second compound 0.1 µM, first compound 3.16 µM): 146%
viability, T/C (second compound 0.1 µM, first compound 10 µM): 46.4%
viability, T/C (second compound 0.316 µM, first compound 0.0316 µM): 94.3%
viability, T/C (second compound 0.316 µM, first compound 0.1 µM): 99.2%
viability, T/C (second compound 0.316 µM, first compound 0.316 µM): 112%
viability, T/C (second compound 0.316 µM, first compound 1 µM): 150%
viability, T/C (second compound 0.316 µM, first compound 3.16 µM): 131%
viability, T/C (second compound 0.316 µM, first compound 10 µM): 38.7%
viability, T/C (second compound 1 µM, first compound 0.0316 µM): 75.2%
viability, T/C (second compound 1 µM, first compound 0.1 µM): 74.4%
viability, T/C (second compound 1 µM, first compound 0.316 µM): 82.4%
viability, T/C (second compound 1 µM, first compound 1 µM): 101%
viability, T/C (second compound 1 µM, first compound 3.16 µM): 70.5%
viability, T/C (second compound 1 µM, first compound 10 µM): 21%
viability, T/C (second compound 3.16 µM, first compound 0.0316 µM): 13.8%
viability, T/C (second compound 3.16 µM, first compound 0.1 µM): 13.9%
viability, T/C (second compound 3.16 µM, first compound 0.316 µM): 16.7%
viability, T/C (second compound 3.16 µM, first compound 1 µM): 14.9%
viability, T/C (second compound 3.16 µM, first compound 3.16 µM): 6.15%
viability, T/C (second compound 3.16 µM, first compound 10 µM): 2.65%
viability, T/C (second compound 10 µM, first compound 0.0316 µM): 2.34%
viability, T/C (second compound 10 µM, first compound 0.1 µM): 2.08%
viability, T/C (second compound 10 µM, first compound 0.316 µM): 3.14%
viability, T/C (second compound 10 µM, first compound 1 µM): 1.59%
viability, T/C (second compound 10 µM, first compound 3.16 µM): 1.27%
viability, T/C (second compound 10 µM, first compound 10 µM): 1.27%

CCc1c2c(nc3ccc(O)cc13)-c1cc3c(c(=O)n1C2)COC(=O)[C@]3(O)CC
viability, T/C (compound 0.000999 µM): 25.5% and 14.5% and 17.8%
viability, T/C (compound 0.00316 µM): 8.48% and 8.19% and 8.06%
viability, T/C (compound 0.00999 µM): 5.42% and 2.67% and 4.25%
viability, T/C (compound 0.0316 µM): 3.41% and 2.61% and 2.84%
viability, T/C (compound 0.0999 µM): 2% and 2.11% and 1.97%
viability, T/C (compound 0.316 µM): 1.84% and 1.42% and 1.47%
pIC50 (curve of compound): > 9.00
